Counter-ions that a name gives are not always drawn. *1 amine or outer side, *2 acyl side, *3 side chain or, on linkers, in order; H or OH if unused. Where a SMILES comes first, the peptide text is derived from it. Bridges are numbered along the chain shown (N, C = ends). Roman numbers before positions name the chains, in order. [ ]: non-standard residue; d: D form. Actinocin(9to1) = Cc1c2oc3c(C)ccc(C(=O)[*:1])c3nc-2c(C(=O)[*:2])c(N)c1=O; NMeV = CN[C@H](C(=O)O)C(C)C; Sar = CNCC(=O)O
Key:
[1] = tested on: resistant sublines of murine leukemia cells; conditions: Tsuruo et al., Cancer Res.; cited from earlier work
[2] = tested on: Drug Resistant C5S32 Chinese hamster ovary cells; experiment: In vitro cytotoxicity of potentiating agents, MTT absorbance (drug resistant CHO); conditions: for Normalized absorbance (surviving cells), potentiating agent + ACT D, fraction of Act D alone: C5S32, 96 h, Act D alone = 1.00
[3] = tested on: Chinese hamster ovary cells (AuxBl and C5S32); experiment: Reduction in cell number by Act D alone, MTT absorbance; conditions: Cricetulus griseus, CHO, read-out: reduction in cell number below the value of completely untreated cultures
[4] = tested on: Drug Resistant KB V-1 human KB epidermoid carcinoma cells; experiment: In vitro cytotoxicity of potentiating agents, MTT absorbance (drug resistant KB); conditions: KB V-1, 96 h, Act D alone = 1.00
Protocol: (§1) After 48 hours of incubation at 37° C., the media is changed and cells are treated with actinomycin D at 0.1 nM (3-1) or 20 nM (V-1). The test potentiating agent is introduced to one-half the untreated cultures and one-half the Act D treated cultures at 1 and 10 μM. After 96 hours of additional incubation at 37° C., 0.5 mg/ml MTT dye is added, the cells are incubated for three hours, after which the cells are dissolved in DMSO, and the absorbance is then read at 570 nm.

[5] = as above; conditions: human, kb v-1 cells
Protocol: as §1

[6] = In vitro cytotoxicity of potentiating agents, MTT absorbance (wildtype KB); conditions: human, kb 3-1 cells
Protocol: as §1

[7] = tested on: Wildtype KB 3-1 human KB epidermoid carcinoma cells; experiment: as above; conditions: KB 3-1, 96 h, Act D alone = 1.00
Protocol: as §1

[8] = In vitro cytotoxicity of potentiating agents, MTT absorbance (drug resistant CHO); conditions: chinese hamster, c5s32 cells
[9] = tested on: Wildtype AUXB1 Chinese hamster ovary cells; experiment: In vitro cytotoxicity of potentiating agents, MTT absorbance (wildtype CHO); conditions: AUXB1, 96 h, Act D alone = 1.00
[10] = as above; conditions: chinese hamster, auxb1 cells

COC(=O)C1=C(C)NC(C)=C(C(=O)OCCN(C)Cc2ccccc2)C1c1cccc([N+](=O)[O-])c1 (centres unmarked) [nicardipine]
enhance the activity of antitumor agents against resistant sublines of murine leukemia cells [1]: enhance the activity of antitumor agents against resistant sublines of murine leukemia cells

COc1ccc(CCN(C)CCCC(C#N)(c2ccc(OC)c(OC)c2)C(C)C)cc1OC (centres unmarked) [Verapamil]
enhance the activity of antitumor agents against resistant sublines of murine leukemia cells [1]: enhance the activity of antitumor agents against resistant sublines of murine leukemia cells

C=C[C@H]1C[N@@]2CC[C@H]1C[C@@H]2[C@@H](O)c1ccnc2ccc(OC)cc12 [quinidine]
enhance the activity of antitumor agents against resistant sublines of murine leukemia cells [1]: enhance the activity of antitumor agents against resistant sublines of murine leukemia cells

COc1ccc([C@@H]2Sc3ccccc3N(CCN(C)C)C(=O)[C@@H]2OC(C)=O)cc1 [diltiazem]
enhance the activity of antitumor agents against resistant sublines of murine leukemia cells [1]: enhance the activity of antitumor agents against resistant sublines of murine leukemia cells

CN(C)CCCN1c2ccccc2CCc2ccc(Cl)cc21 [clomipramine]
enhance the activity of antitumor agents against resistant sublines of murine leukemia cells [1]: enhance the activity of antitumor agents against resistant sublines of murine leukemia cells

Cc1c2oc3c(C)ccc(C(=O)N[C@@H]4C(=O)N[C@H](C(C)C)C(=O)N5CCC[C@H]5C(=O)N(C)CC(=O)N(C)[C@@H](C(C)C)C(=O)O[C@@H]4C)c3nc-2c(C(=O)N[C@@H]2C(=O)N[C@H](C(C)C)C(=O)N3CCC[C@H]3C(=O)N(C)CC(=O)N(C)[C@@H](C(C)C)C(=O)O[C@@H]2C)c(N)c1=O [Actinomycin D, reference compound] (I: T[dV]P[Sar][NMeV] / II: T[dV]P[Sar][NMeV]; ester I:1-I:C, II:1-II:C; linker I:N-II:N via Actinocin(9to1))
resistance of C5S32 cells to Actinomycin D compared to the parental AuxBI cell line ([2]; C5S32 vs parental AuxBI): about 200 fold
inhibition at 0.01 µM [3]: 10 to 20%

CN1CCN(CCCN2c3ccccc3Sc3ccc(C(F)(F)F)cc32)CC1 [trifluoperazine]
enhance the activity of antitumor agents against resistant sublines of murine leukemia cells [1]: enhance the activity of antitumor agents against resistant sublines of murine leukemia cells

CCN(CC)CCn1c(=O)c(Cc2ccc(OC)cc2)nc2ccccc21 [caroverine]
enhance the activity of antitumor agents against resistant sublines of murine leukemia cells [1]: enhance the activity of antitumor agents against resistant sublines of murine leukemia cells

COc1ccc(CN(CCN(C)C)c2ccc(Br)cn2)cc1 [(B), N-(5-Bromo-2-pyridyl)-N-(4-methoxybenzyl)-N',N'-dimethyl-1,2-ethanediaminehydrobromide]
Normalized absorbance (surviving cells), potentiating agent + ACT D, fraction of Act D alone ([4]; 1 μM + Act D 20 nM): 0.85
Normalized absorbance (surviving cells), potentiating agent + ACT D, fraction of Act D alone ([4]; 10 μM + Act D 20 nM): 0.80
viability at 96 h, 1 µM [5]: 77%
viability at 96 h, 10 µM [5]: 56%
viability at 96 h, 1 µM [6]: 97%
viability at 96 h, 10 µM [6]: 86%
Normalized absorbance (surviving cells), potentiating agent + ACT D, fraction of Act D alone ([7]; 1 μM + Act D 0.1 nM): 0.89
Normalized absorbance (surviving cells), potentiating agent + ACT D, fraction of Act D alone ([7]; 10 μM + Act D 0.1 nM): 0.92
Normalized absorbance (surviving cells), potentiating agent + ACT D, fraction of Act D alone ([2]; 1 μM + Act D 0.5 μM): 1.00
Normalized absorbance (surviving cells), potentiating agent + ACT D, fraction of Act D alone ([2]; 10 μM + Act D 0.5 μM): 0.56
viability at 96 h, 1 µM [8]: 100%
viability at 96 h, 10 µM [8]: 91%
Normalized absorbance (surviving cells), potentiating agent + ACT D, fraction of Act D alone ([9]; 1 μM + Act D 0.01 μM): 1.00
Normalized absorbance (surviving cells), potentiating agent + ACT D, fraction of Act D alone ([9]; 10 μM + Act D 0.01 μM): 1.00
viability at 96 h, 1 µM [10]: 100%
viability at 96 h, 10 µM [10]: 100%

COc1ccc(CN(CCN(C)C)c2cccc(/C=C/C(=O)O)n2)cc1 [(A), (E)-3-(6-(N-(2-Dimethylaminoethyl)-4-methoxybenzyl-amino)-2-pyridyl)acrylic acid]
Normalized absorbance (surviving cells), potentiating agent + ACT D, fraction of Act D alone ([4]; 1 μM + Act D 20 nM): 0.85
Normalized absorbance (surviving cells), potentiating agent + ACT D, fraction of Act D alone ([4]; 10 μM + Act D 20 nM): 0.80
viability at 96 h, 1 µM [5]: 70%
viability at 96 h, 10 µM [5]: 73%
viability at 96 h, 1 µM [6]: 100%
viability at 96 h, 10 µM [6]: 99%
Normalized absorbance (surviving cells), potentiating agent + ACT D, fraction of Act D alone ([7]; 1 μM + Act D 0.1 nM): 0.96
Normalized absorbance (surviving cells), potentiating agent + ACT D, fraction of Act D alone ([7]; 10 μM + Act D 0.1 nM): 0.97
Normalized absorbance (surviving cells), potentiating agent + ACT D, fraction of Act D alone ([2]; 1 μM + Act D 0.5 μM): 1.00
Normalized absorbance (surviving cells), potentiating agent + ACT D, fraction of Act D alone ([2]; 10 μM + Act D 0.5 μM): 0.13
viability at 96 h, 1 µM [8]: 68%
viability at 96 h, 10 µM [8]: 28%
Normalized absorbance (surviving cells), potentiating agent + ACT D, fraction of Act D alone ([9]; 1 μM + Act D 0.01 μM): 0.64
Normalized absorbance (surviving cells), potentiating agent + ACT D, fraction of Act D alone ([9]; 10 μM + Act D 0.01 μM): 0.05
viability at 96 h, 1 µM [10]: 100%
viability at 96 h, 10 µM [10]: 41%
